In US11324794B2, “Composition for preventing, improving, or treating decrease in intestinal function, comprising bamboo shoot hydrolyzate or fermented bamboo shoot as active ingredient” (OZLDNF CO., LTD., priority 2017, dated 2022):

Key:
Sprague Dawley (SD) rat [1] = assay: Measurement of number of feces and feces weight change in loperamide-induced constipation; format: in vivo; conditions: oral
Excerpt: (§1) Laboratory […] under the following conditions were used. • Genealogy and Species: Sprague Dawley (SD) rat • Source: Samtaco Co., Ltd. • Number of purchased animals and gender: Male • Age (week) of purchased animals and weight range: 6 weeks, 190 to 220 • Number of animals (male) at the time of administration: 49 • Age (week) of animals and weight range at the time of administration: 7 weeks, 210 to 240 g.
(§2) After one week of acclimation, the test substance, that is, ioperamide as a conventional constipation inductive material, bisacodyl as a conventional constipation therapeutic agent, the enzyme-degraded products in Examples 1 and 2 (fermented for 24 hours) and the fermented products in Examples 3 and 4, respectively, were repeatedly administered in the stomach once a day for a total of 7 days by means of a syringe for oral administration (Sonde). Except for the control group (Con), all test groups were subjected to administration of loperamide (4 mg/kg) in order to induce constipation.
The feces were sampled daily and the number and weight of the feces were measured. Further, the sampled feces were dried in a drier at 70° C. for 24 hours.

Sprague Dawley (SD) rat [2] = assay: Measurement of water content of feces; format: in vivo; conditions: Bis group: loperamide 4 mg/kg + bisacodyl 4 mg/kg, oral; comparison group 29.98±1.89%
Excerpt: as §1, §2
The feces were sampled daily and the number and weight of the feces were measured. Further, the sampled feces were dried in a drier at 70° C. for 24 hours. A percentage of water content was calculated by subtracting the weight after drying from the weight before drying to estimate the water content and converting the estimated value as the percentage to a total weight of the feces.

Sprague Dawley (SD) rat [3] = assay: Digestive tract migration rate (activated charcoal); format: in vivo; conditions: oral, 7th day, 30 minutes after charcoal
Excerpt: as §1
as §2, with “Except for the control group (Con), all test groups were subjected to administration of loperamide (4 mg/kg) in order to induce constipation.” left out
After fasting a laboratory animal for 15 hours on the 7th day of constipation induction, a 0.5 ml suspension including 10% Arabic gum (Sigma, USA) and 5% activated charcoal (Sigma, USA) was orally administered to the animal. 30 minutes later, the animal was sacrificed, the gastrointestinal tract was removed, and a migration rate was calculated by dividing a length wherein green colored feces are excreted among the intestinal tract length between the duodenum and the rectum, with passage of time. […]

Sprague Dawley (SD) rat [4] = assay: Counting number of intestinal stools remaining in the colon tract; format: in vivo; conditions: oral, 8th day
Excerpt: as §1, §2
The number of intestinal stools was counted by scarifying a laboratory rat on the 8th day after administration of loperamide and observing the number of feces remaining in the colon tract.
On the last day of the experiment, all laboratory animals were sacrificed and the number of feces remaining in the rectal region was measured.

[5] = Measurement of body weight, dietary intake and amount of drinking water; format: in vivo, Sprague Dawley (SD) rat; conditions: Lop group: loperamide 4 mg/kg alone, oral
Excerpt: as §1
as §2, with “Except for the control group (Con), all test groups were subjected to administration of loperamide (4 mg/kg) in order to induce constipation.” left out
The body weight was measured twice a week on the day before the experiment when group separation was conducted, and twice a week on the day after administration, respectively. The experimental dietary intake was measured by feeding 100 g of test diet at a predetermined time and, after 24 hours, the remaining amount was measured to determine the dietary intake. The drinking water was fed by 250 ml at a predetermined time and the remaining water was measured on the next day to determine a total amount of the water intake. […]

[6] = Bis group: loperamide 4 mg/kg + bisacodyl 4 mg/kg

Structure (SMILES) | Weight of feces (Sprague Dawley (SD) rat [1]; [6]) [g] | Water content of the feces (Sprague Dawley (SD) rat [2]) [%] | Digestive tract migration rate (Sprague Dawley (SD) rat [3]; [6]) [%] | Number of feces remaining in the intestinal tract (Sprague Dawley (SD) rat [4]; [6]) | Body weight change (g) (B) − (A) ([5]; 7 days) | Body weight (g) After test (B) ([5]; once a day for 7 days) [g] | Number of feces (Sprague Dawley (SD) rat [1]; Lop group: loperamide 4 mg/kg alone, 7th day after induction of constipation, Con group 55.14±2.06) | Weight of feces (Sprague Dawley (SD) rat [1]; Lop group: loperamide 4 mg/kg alone, Con group 7.52±0.30 g) [g] | Digestive tract migration rate (Sprague Dawley (SD) rat [3]; Lop group: loperamide 4 mg/kg alone, Con group 68.63±2.72%) [%] | Number of feces remaining in the intestinal tract (Sprague Dawley (SD) rat [4]; Lop group: loperamide 4 mg/kg alone, Con group 1.86±0.55)
CC(=O)Oc1ccc(C(c2ccc(OC(C)=O)cc2)c2ccccn2)cc1 [Bisacodyl] | 6.82 ± 0.35 | 44.02±1.34 | 65.02±2.86 | 3.62±0.86 |  |  |  |  |  | 
CN(C)C(=O)C(CCN1CCC(O)(c2ccc(Cl)cc2)CC1)(c1ccccc1)c1ccccc1 [Loperamide] |  |  |  |  | 73.45 ± 5.48 | 278.58 ± 6.82 | 44.40±2.54 | 5.02 ± 0.36 | 42.10±3.49 | 5.66±0.63
